Assay results published in US20250092036A1, “COMPOUNDS AND COMPOSITIONS FOR MODULATING THE ACTIVITY OF ERK” (Novartis AG, priority 2023, published 2025).
Where two headings read alike, the source gives them in different places.

How the values were obtained:
[1] = biological target: T1, nanobit-large-bit-ERK2 and nanobit-small-bit-PEA15 in WM793 cells (Homo sapiens, UniProt P28482); experiment: NanoBiT assay; assay type: cell-based; conditions: WM793 nanobit stable cell line, overnight incubation; read-out: NanoBiT qualified absolute AC50
T1 construct: expressed in transfected cells
T1 sequence (P28482 whole entry): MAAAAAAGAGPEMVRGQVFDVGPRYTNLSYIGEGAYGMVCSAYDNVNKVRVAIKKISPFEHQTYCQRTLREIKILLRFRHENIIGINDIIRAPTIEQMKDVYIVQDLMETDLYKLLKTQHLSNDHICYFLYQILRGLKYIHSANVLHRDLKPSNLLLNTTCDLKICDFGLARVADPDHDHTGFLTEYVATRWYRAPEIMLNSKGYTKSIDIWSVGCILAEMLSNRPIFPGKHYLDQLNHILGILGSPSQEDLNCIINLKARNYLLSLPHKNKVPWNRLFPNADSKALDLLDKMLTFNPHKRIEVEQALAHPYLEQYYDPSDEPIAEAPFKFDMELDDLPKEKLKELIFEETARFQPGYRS
Description: (§1) Cancer cell media was prepared by adding 500 mL of RPMI (ThermoFisher cat ##22400-089) and 10% Fetal Bovine Serum (Gibco) for WM793 cells (ATCC Cat #CRL-2806, RRID: CVCL 8787) and F12K (Thermo Fisher cat #21127-022, 500 mL; or 21127-030, 10×500 mL)+10% FBS for PC3 (ATCC CRL-1435) cells. The entire media with supplements was filter sterilized through a 0.4 μm bottle top filter system. Cancer cell lines were detached from traditional cell culture flasks by washing three times with 1×PBS and adding an appropriate amount of 0.25% TrypLE™ Express Enzyme (1×), no phenol red (ThermoFisher cat #12604013) to create a thin layer over the cells. Trypsin was neutralized with media containing serum and proceeded to count the cells.
A nanobit stable cell line was generated using WM793 cells with nanobit-large-bit-ERK2 and nanobit-small-bit-PEA15. […] In a biological safety cabinet, cells were seeded using a sterilized small stainless steel tipped cassette on a Multi-drop Combi. Between different cell lines, the tubing of the cassette was flushed with 1× sterile PBS for 10 s. Alternatively, cells can be seeded using a Multi-flow located within a Hepa filtered robotics room using either a sterilized small sapphire jewel tipped cassette and the peristatic pump, or the attached syringe pump, depending on volume of plates per cell line needed. The plates were placed in an incubator set at 37° C., with 5% CO2 and 95% relative humidity. A 10-point, 3-fold serial dilution of compounds was prepared in 100% DMSO on a liquid handling robot with a 10 mM top concentration. 90 nl/well was dispensed in three assay plates/1 compound source plate, with the highest concentration at 30 μM. After addition of compound was complete, the plates were placed into an incubator at 37° C., with 5% CO2 and 95% relative humidity for overnight. Luminescence was captured on a plate luminometer such as an Envision or View Lux to measure Day 0 time point both select cell lines. LUM plus, gain 3500, 0.1 s and focal height 12.5 [mm] on PheraStar reader. The raw data was extracted from the instrument and normalized all fields containing test compounds to the average of all wells containing DMSO alone as neutral control. From this value, the percent growth inhibition was calculated for each compound. Dose response curves and inhibitory IC50s were generated by graphing the normalized data values against the compound concentration using either a program such as GraphPad™ or Excel Fit.

WM793 cells = experiment: Cell proliferation assay (CellTiter-Glo); assay type: cell-based; conditions: 3 d, read-out: Cell proliferation qualified AC50
Description: as §1
After counting the cells, the concentration of the cell solution was adjusted to seed a total of 750 cells per well in 50 μL of complete media into 384-well tissue culture treated plates. In a biological safety cabinet, cells were seeded using a sterilized small stainless steel tipped cassette on a Multi-drop Combi. Between different cell lines, the tubing of the cassette was flushed with 1× sterile PBS for 10 seconds. Alternatively, cells can be seeded using a Multi-flow located within a Hepa filtered robotics room using either a sterilized small sapphire jewel tipped cassette and the peristatic pump, or the attached syringe pump, depending on volume of plates per cell line needed. The plates were placed in an incubator set at 37° C., with 5% CO2 and 95% relative humidity. A 10-point, 3-fold serial dilutions of compounds in 100% DMSO was prepared on a liquid handling robot with a 10 mM top concentration. 100 nL/well in three assay plates/1 compound was dispensed to source plate, with the highest concentration at 20 μM. After addition of compound was complete, plates were placed into an incubator at 37° C., with 5% CO2 and 95% relative humidity for 3 d. An adequate volume of CellTiter-Glo® (Promega #G7571) detection reagent was pre-warmed to RT or in a 37° C. H2O bath. 25 μL of the reagent was added to each well using either a Multi-drop Combi or MultiFlo and incubate at RT for at least 15 min. Luminesce was captured on a plate luminometer such as an Envision or View Lux to measure Day 0 time point both select cell lines. LUM plus, gain 3500, 0.1 s and focal height 12.5 mm on PheraStar reader. At Day 3, an adequate volume of CellTiter-Glo® detection reagent was pre-warmed at RT or in a 37° C. H2O bath. A total of 25 μL of the reagent was added to each well using either a Multi-drop Combi or MultiFlo and incubate at RT for at least 15 min. Luminesce was captured on a plate luminometer such as an Envision or View Lux to measure Day 3 time point both select cell lines. LUM plus, gain 3500, 0.1 s and focal height 12.5 mm on PheraStar reader. Raw data was extracted from the instrument and all fields containing test compounds were normalized to the average of all wells containing DMSO alone from Day 3 as neutral control and Day 0 starting numbers. From this value, percent growth inhibition of each compound was calculated. Dose response curves and growth inhibitory IC50s were generated by graphing the normalized data values against the compound concentration using a program such as GraphPad™ or Excel Fit.

[2] = system: WM793 BRAFV600E tumor xenograft; experiment: Anti-tumor activity and tolerability in WM793 BRAFV600E tumor xenograft in nude mice; assay type: in vivo
[3] = biological target: T2, ERK2[2-360(p-T185/p-Y187)]-Avi (Homo sapiens, UniProt P28482); experiment: Biochemical assay (HTRF competition assay); assay type: binding; conditions: HTRF competition with Example 15 probe, overnight at RT; read-out: Biochemical qualified AC50
T2 construct: 400 pM ERK2[2-360(p-T185/p-Y187)]-Avi was added to the plate
T2 sequence (P28482 2-360 limits assumed): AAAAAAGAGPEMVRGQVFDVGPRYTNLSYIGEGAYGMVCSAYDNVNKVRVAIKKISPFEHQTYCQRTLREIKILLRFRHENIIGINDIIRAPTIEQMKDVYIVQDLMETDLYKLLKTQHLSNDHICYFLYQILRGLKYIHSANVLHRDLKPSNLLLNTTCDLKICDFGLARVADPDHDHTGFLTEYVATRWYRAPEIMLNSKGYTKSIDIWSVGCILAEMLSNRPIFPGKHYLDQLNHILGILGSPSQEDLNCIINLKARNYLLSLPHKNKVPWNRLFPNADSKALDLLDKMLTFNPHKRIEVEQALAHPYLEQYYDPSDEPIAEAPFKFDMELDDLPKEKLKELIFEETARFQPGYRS
Description: The competition assays were performed at RT in a 384-well white polystyrene, flat bottom plate (Greiner #784075) using a final reaction volume of 15 μL and the following assay buffer conditions: 50 mM MOPS, pH 7.2, 10 mM MgCl2, 0.5 mM TCEP, 0.01% Triton-X-100. 75 nL of a 10 mM compound solution in DMSO or 100% DMSO (12 point titration, final concentration: 50 μM-300 pM; final DMSO: 0.5%) was added using an acoustic liquid handler (Echo, Beckman Coulter) to wells containing 7.5 μL of 1-(6-((R)-3-(1-(5-chloro-1-((tetrahydro-2H-pyran-4-yl)methyl)-1H-indole-3-carbonyl)-4-(4-fluorophenyl)piperidine-4-carboxamido)pyrrolidin-1-yl)-6-oxohexyl)-3,3-dimethyl-5-sulfo-2-((1E,3E)-5-((E)-1,3,3-trimethyl-5-sulfoindolin-2-ylidene)penta-1,3-dien-1-yl)-3H-indol-1-ium (Example 15); 7.5 μL 400 pM SA-Tb (Cisbio, 610SATLB) and 400 pM ERK2[2-360(p-T185/p-Y187)]-Avi was added to the plate and incubated overnight at RT. HTRF signal was measured using a microplate reader (PheraStar, BMG Labtech) with excitation and emission wavelengths of […], respectively. The inhibitor dose-response curves were analyzed from the HTRF ratio signal using normalized IC50 regression curve fitting with control-based normalization.

[4] = system: WM793 BRAFV600E tumor xenograft; experiment: Anti-tumor activity and tolerability in WM793 BRAFV600E tumor xenograft in nude rats; assay type: in vivo; conditions: per os
Description: Female RNU rats (Charles River, 4-5 weeks of age) were acclimatized into animal facility and pretreated with 100 mg/kg cyclophosphamide IP at 10 ml/kg 24 hrs prior to tumor implant. Nude rats were subcutaneously implanted on the right side with WM793 BRAF^V600E tumors via fragments (20-40 mg) from a previously passaged tumor with sterile techniques under isoflurane anesthesia using a 10 gauge trocar (n=4/group). Body weights were monitored at least once a week and calculated as (BWcurrent−BWinitial)/(BWinitial)×100%. After 1-3 weeks when palpable tumors developed, tumor volumes were monitored at least once a week by caliper measurements. Tumor volumes (mm^3) were calculated as (length×width×width)/2. Rats were randomized and selected for study based on tumor sizes (100-200 mm^3) and appropriate health conditions. Compounds of Formula I, formulated in either 20% HPBCD at 5 mg/ml or 20% HPBCD at 2.5 mg/ml were dosed at 10 ml/kg per os. Animals were euthanized based on poor health conditions, tumor volumes exceeded 2500 mm^3, or have reached the end of study. Regression % was calculated by 100×ΔT/Tinitial if ΔT<0, in which ΔT is the change of tumor volume.

Row | SMILES | AC50 [1] | AC50 (WM793 cells; Homo sapiens, WM793, 72 h) | animals sacrificed due to increased body weight loss ([2]; highest dosing group (300 mg/kg bid 2 day on, 1 day off)) | anti-tumor activity (tumor volume) at the highest dose ([2]; per os, 300 mg/kg bid 2 day on, 1 day off, 14 days) | anti-tumor activity (tumor volume) ([2]; per os, 30, 75, 150 mg/kg bid and 300 mg/kg bid 2 day on, 1 day off, 14 days) | Percent body weight change following first dose / tolerability ([2]; per os, 30-300 mg/kg bid, 14 days) | AC50 [3] | Percent body weight change following first dose / tolerability [4] | anti-tumor activity (tumor volume) with holiday break ([4]; 50 mg/kg bid for 5 days with 2 day break) | anti-tumor activity (tumor volume) ([4]; 50 mg/kg bid for 22 days) | AC50 (WM793 cells) | anti-tumor activity (tumor volume) ([4]; 22 days, dose not given)
1 | CN1C[C@@H](F)[C@@H](NC(=O)C2(c3ccc(F)cc3)CCN(C(=O)c3c(C=O)n(CC4CCOCC4)c4ccc(Cl)cc34)CC2)C1 [Example 13, 1-(5-chloro-2-formyl-1-((tetrahydro-2H-pyran-4-yl)methyl)-1H-indole-3-carbonyl)-N-((3S,4R)-4-fluoro-1-methylpyrrolidin-3-yl)-4-(4-fluorophenyl)piperidine-4-carboxamide] | 56 nM | 54 nM | One mouse at the highest dosing group was sacrificed on day 11 | regression | dose dependent antitumor activity | minimal body weight loss and is well tolerated | 0.48 nM | – | – | – | – | –
2 | CCc1c(C[C@H]2CC[C@H](OC3CCOCC3)CC2)c2ccc(F)cc2n1C(=O)N1CCC(C(=O)N[C@H]2CC[C@H](C(=O)O)C[C@@H]2C)(c2ccc(F)cc2)CC1 [Example 5, (1S,3S,4S)-4-(1-(2-ethyl-6-fluoro-3-(((1r,4S)-4-((tetrahydro-2H-pyran-4-yl)oxy)cyclohexyl)methyl)-1H-indole-1-carbonyl)-4-(4-fluorophenyl)piperidine-4-carboxamido)-3-methylcyclohexane-1-carboxylic acid] | 66 nM | 24 nM | – | – | – | – | 0.7 nM | well tolerated | tumor regression, which is maintained | tumor regression | – | –
3 | CC(C)OC1CCC(C2CN(C(=O)N3CC[C@@](C(=O)N[C@H]4CC[C@H](C(=O)O)C[C@@H]4C)(c4ccc(F)cc4)C[C@@H]3C)c3cc(F)ccc32)CC1 (stereo partly drawn) [Example 4, (1S,3S,4S)-4-((2S,4S)-1-(6-fluoro-3-((1R,4S)-4-isopropoxycyclohexyl)indoline-1-carbonyl)-4-(4-fluorphenyl)-2-methylpiperidine-4-carboxamido)-3-methylcyclohexane-1-carboxylic acid] | 20 nM | – | – | – | – | – | 0.47 nM | well tolerated | – | – | 3 nM | regression
4 | CCO[C@H]1CC[C@H](Cc2c(C)n(C(=O)N3CCC(C(=O)N[C@H]4CC[C@H](C(=O)O)C[C@@H]4C)(c4ccc(F)cc4)CC3)c3cc(F)ccc23)CC1 [Example 7, (1S,3S,4S)-4-(1-(3-(((1r,4S)-4-ethoxycyclohexyl)methyl)-6-fluoro-2-methyl-1H-indole-1-carbonyl)-4-(4-fluorophenyl)piperidine-4-carboxamido)-3-methyl cyclohexane-1-carboxylic acid] | 80 nM | 96 nM | – | – | – | – | 0.33 nM | – | – | – | – | –
5 | Cc1c(C[C@H]2CC[C@H](OC(C)C)CC2)c2ccc(F)cc2n1C(=O)N1CCC(C(=O)N[C@H]2CC[C@H](C(=O)O)C[C@@H]2C)(c2ccc(F)cc2)CC1 [Example 1, (1S,3S,4S)-4-(1-(6-fluoro-3-(((1r,4S)-4-isopropoxycyclohexyl)methyl)-2-methyl-1H-indole-1-carbonyl)-4-(4-fluorophenyl)piperidine-4-carboxamido)-3-methylcyclohexane-1-carboxylic acid] | 100 nM | – | – | – | – | – | 0.33 nM | – | – | – | 110 nM | –
6 | CC(C)O[C@H]1CC[C@H](Cn2c(C=O)c(C(=O)N3CCC(C(=O)N[C@H]4CC[C@H](C(=O)O)C[C@@H]4C)(c4ccc(F)cc4)CC3)c3cc(Cl)cnc32)CC1 [Example 11g] | 270 nM | 610 nM | – | – | – | – | 0.36 nM | – | – | – | – | –
7 | COCCc1c(C[C@H]2CC[C@H](OC(C)C)CC2)c2cc(F)c(F)cc2n1C(=O)N1CCC(C(=O)N[C@H]2CC[C@H](C(=O)O)C[C@@H]2C)(c2ccc(F)cc2)CC1 [Example 1f] | 140 nM | 52 nM | – | – | – | – | < 0.28 nM | – | – | – | – | –
